Measurements reported in PubChem BioAssay (NCI).
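Compound exposure: 48 hours, 5 concentrations, 96-well plates. TGI marks complete inhibition of growth.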

Key:
Experiment in all cases: growth of human tumour cells (NCI), 48 h
[1] = test system: SF-295 CNS
[2] = test system: SF-539 CNS
[3] = test system: SNB-75 CNS
[4] = test system: DU-145 prostate
[5] = test system: LXFL 529 NSCLC
[6] = test system: A549 NSCLC
[7] = test system: CAKI-1 renal
[8] = test system: M19-MEL melanoma
[9] = test system: DMS 273 small cell lung
[10] = test system: XF 498 CNS
[11] = test system: HOP-62 NSCLC
[12] = test system: UACC-257 melanoma
[13] = test system: RPMI-8226 leukemia
[14] = test system: RXF 393 renal
[15] = test system: IGROV1 ovarian
[16] = test system: CCRF-CEM leukemia
[17] = test system: HCT-116 colon
[18] = test system: MDA-MB-435
[19] = test system: COLO 205 colon
[20] = test system: EKVX NSCLC
[21] = test system: KM12 colon
[22] = test system: OVCAR-4 ovarian
[23] = test system: UACC-62 melanoma
[24] = test system: NCI-H226 lung
[25] = test system: NCI-H522 lung
[26] = test system: DLD-1 colon
[27] = test system: HOP-92 NSCLC
[28] = test system: M14 melanoma
[29] = test system: T-47D breast
[30] = test system: 786-0 renal
[31] = test system: PC-3 prostate
[32] = test system: UO-31 renal
[33] = test system: BT-549 breast
[34] = test system: HCC-2998 colon
[35] = test system: ACHN renal
[36] = test system: K-562 leukemia
[37] = test system: OVCAR-3 ovarian
[38] = test system: SR leukemia
[39] = test system: SK-MEL-2 melanoma
[40] = test system: MDA-N
[41] = test system: MDA-MB-231 breast
[42] = test system: SK-MEL-5 melanoma
[43] = test system: TK-10 renal
[44] = test system: MOLT-4 leukemia
[45] = test system: SNB-78 CNS
[46] = test system: SF-268 CNS
[47] = test system: HT29 colon
[48] = test system: HCT-15 colon
[49] = test system: OVCAR-5 ovarian
[50] = test system: A498 renal
[51] = test system: NCI-H23 lung
[52] = test system: HS 578T breast
[53] = test system: SK-OV-3 ovarian
[54] = test system: RXF-631 renal
[55] = test system: OVCAR-8 ovarian
[56] = test system: SNB-19 CNS
[57] = test system: MALME-3M melanoma
[58] = test system: U251 CNS
[59] = test system: NCI/ADR-RES ovarian
[60] = test system: KM20L2 colon
[61] = test system: LOX IMVI melanoma
[62] = test system: DMS 114 small cell lung
[63] = test system: SW-620 colon
[64] = test system: SN12C renal
[65] = test system: HOP-18 NSCLC
[66] = test system: NCI-H460 lung
[67] = test system: HL-60(TB) leukemia
[68] = test system: MCF7 breast
[69] = test system: SK-MEL-28 melanoma

SMILES: O=c1c2ccccc2n2nnc3ccc(NCCNCCO)c1c32
- TGI [1]: 9.82 µM
- TGI [2]: 14.6 µM
- TGI [3]: 7.54 µM
- TGI [4]: 2.7 µM
- TGI [5]: 14.2 µM
- TGI [6]: 3.5 µM
- TGI [7]: 10 µM
- TGI [8]: 8.61 µM
- TGI [9]: 11.1 µM
- TGI [10]: 25.2 µM
- TGI [11]: 8.91 µM
- TGI [12]: 12.3 µM
- TGI [13]: 13.7 µM
- TGI [14]: 7.24 µM
- TGI [15]: 15.6 µM
- TGI [16]: 14.9 µM
- TGI [17]: 10.3 µM
- TGI [18]: 10.8 µM
- TGI [19]: 4.09 µM
- TGI [20]: 8.87 µM
- TGI [21]: 7.44 µM
- TGI [22]: 6.34 µM
- TGI [23]: 8.68 µM
- TGI [24]: 5.06 µM
- TGI [25]: 7.23 µM
- TGI [26]: 15.4 µM
- TGI [27]: 6.18 µM
- TGI [28]: 5.2 µM
- TGI [29]: 29.1 µM
- TGI [30]: 11.5 µM
- TGI [31]: 4.89 µM
- TGI [32]: 3.78 µM
- TGI [33]: 10.1 µM
- TGI [34]: 3.74 µM
- TGI [35]: 5.89 µM
- TGI [36]: 21.7 µM
- TGI [37]: 5.81 µM
- TGI [38]: 8.05 µM
- TGI [39]: 10.5 µM
- TGI [40]: 10.3 µM
- TGI [41]: 8.18 µM
- TGI [42]: 4.37 µM
- TGI [43]: 9.4 µM
- TGI [44]: 9.64 µM
- TGI [45]: 27.6 µM
- TGI [46]: 6.46 µM
- TGI [47]: 6.49 µM
- TGI [48]: 9.42 µM
- TGI [49]: 7 µM
- TGI [50]: 5.52 µM
- TGI [51]: 8.85 µM
- TGI [52]: 6.36 µM
- TGI [53]: 16.5 µM
- TGI [54]: 9.36 µM
- TGI [55]: 4.74 µM
- TGI [56]: 17.7 µM
- TGI [57]: 7.84 µM
- TGI [58]: 6.73 µM
- TGI [59]: 5.96 µM
- TGI [60]: 8.29 µM
- TGI [61]: 2.6 µM
- TGI [62]: 13.4 µM
- TGI [63]: 6.44 µM
- TGI [64]: 13.1 µM
- TGI [65]: 8.67 µM
- TGI [66]: 2.83 µM
- TGI [67]: 5.24 µM
- TGI [68]: 14.9 µM
- TGI [69]: 10.9 µM
